Laboratory results taken from ChEMBL document CHEMBL1201862, “PubChem BioAssay data set” (2004).
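Exposure lasted 48 hours, with cells grown in 96-well plates and compounds tested at five concentrations. GI50 = concentration required for 50% inhibition of growth.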 The source made the active and inactive calls. Cut-off read from the data, not from the text of the source: active = GI50 up to about 1.1 µM and inactive = higher.

Assays:
Experiment in all cases: NCI anticancer screen, dose series, 48 h
EKVX = tested on: EKVX
HCC 2998 = tested on: HCC 2998
HCT-15 = tested on: HCT-15
Hs-578T = tested on: Hs-578T
MDA-MB-231 = tested on: MDA-MB-231
NCI-H460 = tested on: NCI-H460
OVCAR-3 = tested on: OVCAR-3
OVCAR-8 = tested on: OVCAR-8
PC-3 = tested on: PC-3
SF-268 = tested on: SF-268
SF-539 = tested on: SF-539
SK-MEL-28 = tested on: SK-MEL-28
SK-MEL-2 = tested on: SK-MEL-2
SK-MEL-5 = tested on: SK-MEL-5
SN12C = tested on: SN12C
SNB-75 = tested on: SNB-75
T47D = tested on: T47D
UACC-62 = tested on: UACC-62
UO-31 = tested on: UO-31
NCI-H522 = tested on: NCI-H522

SMILES: CC(=O)OCC1OC(N2C(=O)/C(=C\c3ccc(Cl)cc3)C(N)=Nc3ccccc32)C(OC(C)=O)C(OC(C)=O)C1OC(C)=O (configuration not stated)
- GI50 (EKVX): 29.2 µM (inactive)
- GI50 (HCC 2998): 16.1 µM (inactive)
- GI50 (HCT-15): 23 µM
- GI50 (Hs-578T): 28.4 µM (inactive)
- GI50 (MDA-MB-231): 19.3 µM (inactive)
- GI50 (NCI-H460): 28.4 µM (inactive)
- GI50 (OVCAR-3): 15.4 µM (inactive)
- GI50 (OVCAR-8): 13.8 µM (inactive)
- GI50 (PC-3): 20.6 µM (inactive)
- GI50 (SF-268): 18.2 µM (inactive)
- GI50 (SF-539): 10.1 µM (inactive)
- GI50 (SK-MEL-28): 26.1 µM (inactive)
- GI50 (SK-MEL-2): 25.4 µM (inactive)
- GI50 (SK-MEL-5): 12.7 µM (inactive)
- GI50 (SN12C): 29.2 µM (inactive)
- GI50 (SNB-75): 19.1 µM (inactive)
- GI50 (T47D): 12.4 µM (inactive)
- GI50 (UACC-62): 29.4 µM (inactive)
- GI50 (UO-31): 20.7 µM (inactive)

SMILES: O=C1OCC2OC(=O)c3cc(O)c(O)c(O)c3-c3c(O)c(O)c(O)c4c3C(=O)OC(C2OC(=O)c2cc(O)c(O)c(O)c2-c2c1cc(O)c(O)c2O)C1OC(=O)c2c-4c(O)c(O)c(O)c2[C@@H]1C(O)C(O)C(O)C(O)CO (some centres not stated)
- GI50 (EKVX): 19.8 µM (inactive)
- GI50 (HCC 2998): 21.6 µM (inactive)
- GI50 (HCT-15): 16.1 µM
- GI50 (Hs-578T): 27.9 µM (inactive)
- GI50 (MDA-MB-231): 12.7 µM (inactive)
- GI50 (NCI-H460): 17.6 µM (inactive)
- GI50 (NCI-H522): 18.8 µM (inactive)
- GI50 (OVCAR-3): 28.2 µM (inactive)
- GI50 (OVCAR-8): 23.3 µM (inactive)
- GI50 (PC-3): 20.7 µM (inactive)
- GI50 (SF-268): 21.5 µM (inactive)
- GI50 (SK-MEL-28): 49.1 µM (inactive)
- GI50 (SK-MEL-2): 21.6 µM (inactive)
- GI50 (SK-MEL-5): 14.1 µM (inactive)
- GI50 (SN12C): 16 µM (inactive)
- GI50 (SNB-75): < 0.01 µM (active)
- GI50 (T47D): 19.1 µM (inactive)
- GI50 (UACC-62): 17.8 µM (inactive)
- GI50 (UO-31): 17.8 µM (inactive)

SMILES: On1c(-c2ccccc2)nc2ccccc2c1=S
- GI50 (EKVX): 10.3 µM (inactive)
- GI50 (HCC 2998): 2.4 µM (inactive)
- GI50 (HCT-15): 1.36 µM
- GI50 (Hs-578T): 16.5 µM (inactive)
- GI50 (MDA-MB-231): 70.3 µM (inactive)
- GI50 (NCI-H460): 0.583 µM (active)
- GI50 (OVCAR-3): 4.39 µM (inactive)
- GI50 (OVCAR-8): 4 µM (inactive)
- GI50 (PC-3): 3.61 µM (inactive)
- GI50 (SF-268): 3.47 µM (inactive)
- GI50 (SF-539): 4.32 µM (inactive)
- GI50 (SK-MEL-28): 7.41 µM (inactive)
- GI50 (SK-MEL-2): 8.75 µM (inactive)
- GI50 (SK-MEL-5): 3.58 µM (inactive)
- GI50 (SN12C): 7.13 µM (inactive)
- GI50 (SNB-75): 19.3 µM (inactive)
- GI50 (T47D): 3.37 µM (inactive)
- GI50 (UACC-62): 3.7 µM (inactive)
- GI50 (UO-31): 3.39 µM (inactive)

SMILES: COc1c2c(cc3c1OCO3)[C@]13C=C[C@H](OC)C[C@H]1N(C2)CC3O (some centres not stated)
- GI50 (EKVX): > 100 µM (inactive)
- GI50 (HCC 2998): > 100 µM (inactive)
- GI50 (HCT-15): > 100 µM
- GI50 (Hs-578T): > 100 µM (inactive)
- GI50 (MDA-MB-231): > 100 µM (inactive)
- GI50 (NCI-H460): > 100 µM (inactive)
- GI50 (NCI-H522): > 100 µM (inactive)
- GI50 (OVCAR-3): > 100 µM (inactive)
- GI50 (OVCAR-8): > 100 µM (inactive)
- GI50 (PC-3): > 100 µM (inactive)
- GI50 (SF-268): > 100 µM (inactive)
- GI50 (SF-539): > 100 µM (inactive)
- GI50 (SK-MEL-28): > 100 µM (inactive)
- GI50 (SK-MEL-2): > 100 µM (inactive)
- GI50 (SK-MEL-5): > 100 µM (inactive)
- GI50 (SN12C): > 100 µM (inactive)
- GI50 (T47D): > 100 µM (inactive)
- GI50 (UACC-62): > 100 µM (inactive)
- GI50 (UO-31): > 100 µM (inactive)

SMILES: COCCN1C(=O)C2c3[nH]c4ccccc4c3C3CCC(C(C)(C)C)CC3C2C1=O (configuration not stated)
- GI50 (EKVX): 17.9 µM (inactive)
- GI50 (HCC 2998): 19.3 µM (inactive)
- GI50 (HCT-15): 16.9 µM
- GI50 (Hs-578T): 17.2 µM (inactive)
- GI50 (MDA-MB-231): 17.3 µM (inactive)
- GI50 (NCI-H460): 14.8 µM (inactive)
- GI50 (NCI-H522): 18 µM (inactive)
- GI50 (OVCAR-3): 17.5 µM (inactive)
- GI50 (OVCAR-8): 20.7 µM (inactive)
- GI50 (PC-3): 13.4 µM (inactive)
- GI50 (SF-268): 19.2 µM (inactive)
- GI50 (SF-539): 19.1 µM (inactive)
- GI50 (SK-MEL-28): 17.5 µM (inactive)
- GI50 (SK-MEL-5): 17 µM (inactive)
- GI50 (SN12C): 17.1 µM (inactive)
- GI50 (SNB-75): 17.5 µM (inactive)
- GI50 (T47D): 20 µM (inactive)
- GI50 (UACC-62): > 10 µM (inactive)
- GI50 (UO-31): 13.9 µM (inactive)

SMILES: CC(C)NC(=O)OCC[S+]([O-])c1c(Cl)c(Cl)nn1C (configuration not stated)
- GI50 (EKVX): > 100 µM (inactive)
- GI50 (HCT-15): 20 µM
- GI50 (Hs-578T): > 100 µM (inactive)
- GI50 (MDA-MB-231): 28.6 µM (inactive)
- GI50 (NCI-H460): > 100 µM (inactive)
- GI50 (NCI-H522): 18.5 µM (inactive)
- GI50 (OVCAR-3): 40.2 µM (inactive)
- GI50 (OVCAR-8): > 10 µM (inactive)
- GI50 (PC-3): > 100 µM (inactive)
- GI50 (SF-268): > 100 µM (inactive)
- GI50 (SF-539): > 100 µM (inactive)
- GI50 (SK-MEL-28): 28.5 µM (inactive)
- GI50 (SK-MEL-2): > 100 µM (inactive)
- GI50 (SK-MEL-5): 40.9 µM (inactive)
- GI50 (SN12C): 70.1 µM (inactive)
- GI50 (SNB-75): > 100 µM (inactive)
- GI50 (T47D): 38.1 µM (inactive)
- GI50 (UACC-62): 26.6 µM (inactive)
- GI50 (UO-31): > 100 µM (inactive)

SMILES: CS(=O)(=O)c1ccc(/C=N/NC(N)=S)cc1
- GI50 (EKVX): > 100 µM (inactive)
- GI50 (HCC 2998): > 100 µM (inactive)
- GI50 (HCT-15): > 100 µM
- GI50 (Hs-578T): > 100 µM (inactive)
- GI50 (MDA-MB-231): > 100 µM (inactive)
- GI50 (NCI-H460): > 100 µM (inactive)
- GI50 (NCI-H522): > 100 µM (inactive)
- GI50 (OVCAR-3): > 100 µM (inactive)
- GI50 (OVCAR-8): > 100 µM (inactive)
- GI50 (PC-3): > 100 µM (inactive)
- GI50 (SF-268): > 100 µM (inactive)
- GI50 (SK-MEL-28): > 100 µM (inactive)
- GI50 (SK-MEL-5): > 100 µM (inactive)
- GI50 (SN12C): > 100 µM (inactive)
- GI50 (SNB-75): > 100 µM (inactive)
- GI50 (T47D): > 100 µM (inactive)
- GI50 (UACC-62): > 100 µM (inactive)
- GI50 (UO-31): > 100 µM (inactive)
